# Source: patent US9133207B2, “Tetrandrine derivatives with substituted 5-carbon, preparation method and use thereof” (Hangzhou Bensheng Pharmaceutical Co., Ltd., priority 2011, dated 2015)
# How the values were obtained:
# [1] = Experiment 8-2: body weight of nude mice, preliminary toxicity
# Description: (§3) Animal: BALB/c nude mice, 8 weeks, female, purchased from Shanghai Laboratory Animal Center of Chinese Academy of Sciences, China.
# (§4) The mice are administered from the third day after the inoculation. Each mouse is intragastrically administered in 0.4 ml each time and 3 times a day, at 8:00, 14:00 and 20:00, with 6-hour intervals. The administrations are successive for 10 days. The day before administration is deemed as Day 0 and the body weight and tumor size are determined every 5 days to produce a dynamic plot on body weight and tumor growth. On Day 29, the mice are dissected and the tumors are taken out and weighted. The tumor inhibition rate (%) is calculated after the effect of the medicament based on the tumor inhibition rate of the control group being zero.
# (§5) The values determined are presented as mean±standard error (M±SD).
# [2] = mouse, in vivo, 50 mg/kg
# Description: as §3, §4, §5
# [3] = test system: RPMI8226 (multiple myeloma); test: Multiple myeloma cell growth inhibition, MTT, 72 h (Example 6); assay type: cell-based, human; conditions: Homo sapiens, RPMI-8226; 72 h, MTT, RPMI8226
# Method in brief: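 Viability was read by MTT after 72 h of compound exposure at 37 °C, 5% CO2. Each well held 6000 RPMI8226 cells in 1640 medium containing 10% fetal bovine serum, with derivatives added at various concentrations.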
# [4] = test system: NB4 (acute promyelocytic leukemia, AML); test: Leukemia cell growth inhibition, MTT, 72 h (Example 5); assay type: cell-based, human; conditions: Homo sapiens; 72 h, MTT
# Method in brief: (§1)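 Seed 6000 leukemia cells per well in 1640 medium containing 10% FBS. Add test compounds at different concentrations, mix, incubate 72 hours at 37° C in 5% CO2. Determine viable cells by MTT.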
# [5] = test system: K562/adr (drug-resistant, chronic myeloid leukemia, CML); test: as above; assay type: cell-based, human; conditions: Homo sapiens, K562/Adr; 72 h, MTT
# Method in brief: as §1
# [6] = test system: Jurkat (acute lymphoblastic leukemia, ALL); test: as above; assay type: cell-based, human
# Method in brief: as §1
# [7] = test system: Kasumi-1 (acute myeloid leukemia M2 type, AML-M2); test: as above; assay type: cell-based, human; conditions: Homo sapiens, Kasumi 1
# Method in brief: as §1
# [8] = test system: H9 (acute lymphoblastic leukemia, ALL); test: as above; assay type: cell-based, human; conditions: Homo sapiens; 72 h, MTT
# Method in brief: as §1
# [9] = test system: CaES-17 (esophageal cancer cell); test: Solid tumor cell growth inhibition, MTT, 72 h (Example 7); assay type: cell-based, human; conditions: Homo sapiens, CaEs17; 72 h, MTT, CAES-17
# Method in brief: (§2)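 Each line is plated at 4000 cells per well in high-glucose DMEM supplemented with 10% FBS. After 24 h settling, derivatives at several concentrations are mixed in and cultured 72 h; MTT then gives viable cells, with untreated wells set to 100%.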
# PC-3 (prostate cancer) = test: as above; assay type: cell-based, human; conditions: Homo sapiens; 72 h, MTT, PC-3
# Method in brief: as §2
# MG63 (osteosarcoma) = test: as above; assay type: cell-based, human; conditions: Homo sapiens; 72 h, MTT, MG-63
# Method in brief: as §2
# [10] = test system: Hep-2 (laryngeal carcinoma); test: as above; assay type: cell-based, human; conditions: Homo sapiens; 72 h, MTT, Hep 2
# Method in brief: as §2
# [11] = test system: PANC-1 (pancreatic cancer); test: as above; assay type: cell-based, human
# Method in brief: as §2
# [12] = test system: human non-small cell lung cancer cell line A549 transplanted tumor; test: Experiment 8-2: transplanted tumor of human lung cancer in nude mice; assay type: in vivo, BALB/c nude mice
# Source text: Cell lines: human non-small cell lung cancer cell line A549, from China Center for Type Culture Collection (CCTCC);
# The administrations are successive for 10 days.
# [13] = test system: Huh7 (human liver cancer cell); test: Solid tumor cell growth inhibition, MTT, 72 h (Example 7); assay type: cell-based
# Method in brief: as §2
# [14] = test system: Becap37 (human breast cancer cell); test: as above; assay type: cell-based
# Method in brief: as §2
# [15] = test system: SK-OV-3 (ovarian cancer cell); test: as above; assay type: cell-based; conditions: Homo sapiens
# Method in brief: as §2
# [16] = test system: Hela (human cervical cancer cell); test: as above; assay type: cell-based; conditions: Homo sapiens; 72 h, MTT, Hela
# Method in brief: as §2
# [17] = test system: CNE (nasopharyngeal carcinoma cell); test: as above; assay type: cell-based; conditions: Homo sapiens
# Method in brief: as §2
# [18] = test system: MGC 803 (human gastric cancer cell); test: as above; assay type: cell-based; conditions: Homo sapiens
# Method in brief: as §2
# [19] = test system: U87 MG (malignant glioma cell); test: as above; assay type: cell-based; conditions: Homo sapiens, U-87 MG
# Method in brief: as §2
# A549 (human lung cancer) = test: as above; assay type: cell-based; conditions: Homo sapiens; 72 h, MTT, A549
# Method in brief: as §2
# [20] = test system: RKO (human colon adenocarcinoma cell); test: as above; assay type: cell-based; conditions: Homo sapiens; 72 h, MTT, RKO
# Method in brief: as §2
# [21] = Homo sapiens, Jurkat, 72 h, MTT
# [22] = Homo sapiens, 72 h, MTT, PANC-1
# [23] = Homo sapiens, 72 h, MTT, Becap-37
smiles,measurement,setting,value
COc1ccc2cc1Oc1ccc(cc1)C[C@H]1c3cc(c(OC)cc3CCN1C)Oc1c(OC)c(OC)c(CN3CCC(N(C)C)CC3)c3c1[C@H](C2)N(C)CC3 [BS-TE-354],weight loss as compared with the weight in the control group (FIG. 6),[1]; 50 mg/kg,relatively remarkable
same,Weight (g) Final,"[1]; 50 mg/kg intragastric, 3 times a day, 10 days, final body weight, M±SD",16.08 ± 1.00 g
same,Weight (g) Initial,"[1]; nude mice body weight before administration, M±SD",22.25 ± 0.29 g
same,toxic and side effect under such a dosage,[2],has caused some toxic and side effect
same,IC50,[3],0.08 µg/mL
same,IC90,[3],1.58 µg/mL
same,IC50,[4],0.4 µg/mL
same,IC90,[4],1 µg/mL
same,IC50,[5],0.99 µg/mL
same,IC90,[5],2.65 µg/mL
same,IC50,[6]; [21],0.5 µg/mL
same,IC90,[6]; [21],2.23 µg/mL
same,anti-Jurkat activity increase over tetrandrine,[6]; compared with tetrandrine,~4 fold
same,IC50,[7],0.37 µg/mL
same,IC90,[7],1.97 µg/mL
same,IC50,[8],0.78 µg/mL
same,IC90,[8],1.25 µg/mL
same,IC50,[9],0.91 µg/mL
same,IC90,[9],4.89 µg/mL
same,IC50,PC-3 (prostate cancer),1.9 µg/mL
same,IC90,PC-3 (prostate cancer),2.5 µg/mL
same,IC50,MG63 (osteosarcoma),0.68 µg/mL
same,IC90,MG63 (osteosarcoma),0.9 µg/mL
same,IC50,[10],2.05 µg/mL
same,IC90,[10],6.19 µg/mL
same,IC50,[11]; [22],1.25 µg/mL
same,IC90,[11]; [22],6.31 µg/mL
same,anti-PANC-1 activity increase over tetrandrine,[11]; compared with tetrandrine,2 fold
same,effect on transplanted tumor of human lung cancer in nude mice,[12]; 50 mg/kg,exhibits inhibiting effect
same,Mass of tumor,"[12]; 50 mg/kg intragastric, 3 times a day, 10 days, Day 29, M±SD",423.25 ± 364.28 mg
same,Tumor Inhibition rate (%),"[12]; 50 mg/kg intragastric, 3 times a day, 10 days, Day 29, control = zero",43.60%
same,IC50,"[13]; Homo sapiens, 72 h, MTT, Huh-7",0.65 µg/mL
same,IC90,"[13]; Homo sapiens, 72 h, MTT, Huh-7",0.98 µg/mL
same,anti-Huh7 activity increase over tetrandrine,[13]; compared with tetrandrine,~8 fold
same,IC50,[14]; [23],0.4 µg/mL
same,IC90,[14]; [23],2.4 µg/mL
same,anti-Becap37 activity increase over tetrandrine,[14]; compared with tetrandrine,17 fold
same,IC50,[15],1.4 µg/mL
same,IC90,[15],> 16 µg/mL
same,IC50,[16],1.07 µg/mL
same,IC90,[16],2.81 µg/mL
same,IC50,[17],0.54 µg/mL
same,IC90,[17],1.62 µg/mL
same,IC50,[18],0.83 µg/mL
same,IC90,[18],3.93 µg/mL
same,IC50,[19],0.31 µg/mL
same,IC90,[19],1.44 µg/mL
same,IC50,A549 (human lung cancer),1.8 µg/mL
same,IC90,A549 (human lung cancer),9.8 µg/mL
same,IC50,[20],0.25 µg/mL
same,IC90,[20],0.51 µg/mL
